Values joined by “and” are separate entries in the source; they are usually repeats but may differ in a detail not shown here. Equal values may be shown once.
Experiments:
[1] = tested on: gluconeogenic and lipogenic gene mRNA in primary hepatocytes; assay: Quantitative PCR of gene expression in primary hepatocytes; format: cell-based, mouse; design: key to Lxra mRNA levels: mRNA level normalized to ribosomal L32 mRNA (internal control); key to Crtc2 mRNA levels / Srebf-1c mRNA levels / Srebf-2 mRNA levels / mRNA levels of G6pc / mRNA levels of CREB / mRNA levels of CRTC2: relative mRNA level, normalized to ribosomal L32; conditions: for Lxra mRNA levels, Mean / Srebf-2 mRNA levels, Mean / Srebf-1c mRNA levels, Mean / Crtc2 mRNA levels, Mean / Crtc2 mRNA levels / Lxra mRNA levels / Srebf-1c mRNA levels / Srebf-2 mRNA levels: Figure 7f; for Lxra mRNA levels, Mean / Srebf-2 mRNA levels, Mean / Srebf-1c mRNA levels, Mean / Crtc2 mRNA levels, Mean: mean of N=3; for Crtc2 mRNA levels / Lxra mRNA levels / Srebf-1c mRNA levels / Srebf-2 mRNA levels / mRNA levels of G6pc / mRNA levels of Pck1: single replicates; for mRNA of G6pc, mean / mRNA of Pck1, mean / mRNA levels of G6pc / mRNA levels of Pck1: Figure 9d; for mRNA of G6pc, mean / mRNA of Pck1, mean: group mean, N 6; for mRNA levels of CREB / mRNA levels of CRTC2 / mRNA levels of CREB, group mean (Mean 2) / mRNA levels of CRTC2, group mean (Mean 2): Supp. Fig.10 d; for mRNA levels of CREB / mRNA levels of CRTC2: individual replicates; for mRNA levels of CREB, group mean (Mean 2) / mRNA levels of CRTC2, group mean (Mean 2): n=6
Method: Total RNA from cells and tissues was extracted by Trizol (Invitrogen) and reverse-transcribed into cDNA using the prime script RT reagent kit with gDNA eraser (Takara). The mRNA levels were determined using the SYBR-green PCR kit (Takara) with ABIPRISM 7900HT Sequence detector (ABI) according to the manufacturer’s protocol. The quantitative qPCR primers used in this work are listed in Supplementary Table 1. Ribosomal L32 mRNA levels were used as an internal control.

PPARα, RXRα or LXRα = assay: PPRE-LUC reporter in HEK293T; format: cell-based; conditions: for relative PPRE-LUC: individual replicates, Supp. Fig.6 c; for relative PPRE-LUC, mean: N=3
Method: 1 c) Luciferase reporter activity of PPRE-LUC (PPAR response element driven luciferase reporter) in
2 HEK293T cell transfected with expression plasmids for Ppara, Rxra or Lxra with 8-h incubation of
3 APC (10 µM). One of three independent experiments presented here. Data are represented as
4 mean ± SEM. (n=3 per treatment). *, p < 0.05; **, p < 0.01; p values were determined by two-way

HEK293T cells = assay: MTT assay, HEK293T cells; format: cell-based, human; conditions: Supp. Fig.10 b; individual replicates; Ctrl about 100
Method: 1 Supplementary Figure 10. A57 is novel inhibitor of the CREB/CRTC2 protein complex.
2 a) The inhibitory-activity of A57 as determined by two-hybrid reporter assay. HEK293T cells were
3 co-transfected with CREB/CRTC2 two-hybrid reporter system plasmids, following incubation with
4 indicated small molecules (10 µM) overnight before luciferase reporter assays (n=4 per treatment).
5 One of three independent experiments is shown here. Data are represented as mean ± SEM. *,
6 p < 0.05; **, p < 0.01; p values were determined by one-way ANOVA followed Dunnett’s multiple
8 b) Combinatorial analysis of the cell toxicity and inhibitory activity of A57. The CREB/CRTC2-two
9 hybrid reporter activity (as a normalized percentage) is the X-axis, and the cell activity tested by MTT
10 assay (as a normalized percentage) is the Y-axis. n=3.
11 c) Immunoblot of P-CREB and CRTC2 de-phosphorylation in primary hepatocytes incubated with
12 A57 and APC (10 µM) 1-h prior to glucagon (100 nM) stimulation for 30 min. One result from three
13 experiments is shown here (top), and relative P-CREB normalized by CREB is presented as a bar
14 graph (bottom, n=3). […]
15 values were determined by two-way ANOVA followed Bonferroni’s multiple comparisons test. […]
18 as mean ± SEM. ns, p > 0.05; *, p < 0.05; **, p < 0.01; p values were determined by two-way ANOVA […]

Question: What does the source list for `CC(C)=CCc1cc(C=CC(=O)O)cc(CC=C(C)C)c1O` [APC, 3,5-diprenyl-4-hydroxycinnamic acid]?
Answer: Lxra mRNA levels, Mean ([1]; LV-CRTC2(S171A), Ctrl mean 1.393): 0.7111; Srebf-2 mRNA levels, Mean ([1]; LV-CRTC2(S171A), Ctrl mean 1.711): 0.86; Srebf-1c mRNA levels, Mean ([1]; LV-CRTC2(S171A), Ctrl mean 1.819): 1.166; Crtc2 mRNA levels, Mean ([1]; LV-CRTC2(S171A), Ctrl mean 153.3): 159.3; Crtc2 mRNA levels ([1]; LV-Crtc2-S171A): 189.700 and 115.000 and 173.200; Lxra mRNA levels ([1]; LV-Crtc2-S171A): 0.732 and 0.747 and 0.654; Srebf-1c mRNA levels ([1]; LV-Crtc2-S171A): 1.132 and 1.102 and 1.263; Srebf-2 mRNA levels ([1]; LV-Crtc2-S171A): 0.860 and 0.819 and 0.901; Crtc2 mRNA levels, Mean ([1]; LV-GFP, Ctrl mean 0.9233): 1.106; Lxra mRNA levels, Mean ([1]; LV-GFP, Ctrl mean 0.93): 0.8542; Srebf-2 mRNA levels, Mean ([1]; LV-GFP, Ctrl mean 0.9967): 1.087; Srebf-1c mRNA levels, Mean ([1]; LV-GFP, Ctrl mean 1.053): 0.9578; Crtc2 mRNA levels ([1]; LV-Gfp): 1.240 and 0.976 and 1.101; Lxra mRNA levels ([1]; LV-Gfp): 0.950 and 0.709 and 0.904; Srebf-1c mRNA levels ([1]; LV-Gfp): 0.940 and 1.083 and 0.850; Srebf-2 mRNA levels ([1]; LV-Gfp): 1.040 and 1.162 and 1.060; mRNA of G6pc, mean ([1]; +Gluc): 73.01; mRNA of Pck1, mean ([1]; +Gluc): 64.35; mRNA levels of G6pc ([1]; +Gluc): 67.250 and 68.919 and 73.819 and 74.050 and 79.623 and 74.414; mRNA levels of Pck1 ([1]; +Gluc): 68.035 and 58.064 and 57.318 and 65.734 and 69.952 and 67.024; mRNA of G6pc, mean ([1]; -Gluc): 0.2875; mRNA of Pck1, mean ([1]; -Gluc): 0.3152; mRNA levels of G6pc ([1]; -Gluc): 0.207 and 0.251 and 0.273 and 0.385 and 0.234 and 0.375; mRNA levels of Pck1 ([1]; -Gluc): 0.283 and 0.267 and 0.371 and 0.342 and 0.306 and 0.322; mRNA levels of CREB ([1]; +Gluc): 0.685 and 0.852 and 0.9121 and 0.8012 and 0.8061 and 0.6905; mRNA levels of CRTC2 ([1]; +Gluc): 0.8083 and 0.8216 and 1.1926 and 0.9078 and 0.9957 and 1.2399; mRNA levels of CREB, group mean (Mean 2) ([1]; +Gluc, Ctrl mean 0.8616): 0.7912; mRNA levels of CRTC2, group mean (Mean 2) ([1]; +Gluc, Ctrl mean 0.8879): 0.9943; mRNA levels of CREB ([1]; -Gluc): 0.9172 and 0.8231 and 0.8735 and 0.9451 and 0.728 and 1.0773; mRNA levels of CRTC2 ([1]; -Gluc): 1.0775 and 1.0279 and 1.0015 and 1.1906 and 1.0107 and 1.2086; mRNA levels of CREB, group mean (Mean 2) ([1]; -Gluc, Ctrl mean 0.9538): 0.894; mRNA levels of CRTC2, group mean (Mean 2) ([1]; -Gluc, Ctrl mean 1.009): 1.086; mRNA levels of Lxrα, Srebf1 and Srebf2 with overexpressed Crtc2-S171A ([1]; primary hepatocytes, APC 10 μM, 8-h): effectively reduced; mRNA accumulation of G6pc, Pck1 and Pgc-1α induced by glucagon ([1]; primary hepatocytes, APC 1, 5 or 50 μM): remarkably decreased; activity of PPRE-luc induced by PPARα, RXRα or LXRα (PPARα, RXRα or LXRα; HEK293T, APC 10 µM, 8-h): did not alter; relative PPRE-LUC, Mean Diff. APC - Ctrl (PPARα, RXRα or LXRα; overexpressed gene: LXRa): 0.2098; relative PPRE-LUC (PPARα, RXRα or LXRα; overexpressed gene: LXRa): 3.9435 and 4.3354 and 5.6775; relative PPRE-LUC, mean (PPARα, RXRα or LXRα; overexpressed gene: LXRa): 4.652; relative PPRE-LUC, Mean Diff. APC - Ctrl (PPARα, RXRα or LXRα; overexpressed gene: PPARa): -2.353; relative PPRE-LUC (PPARα, RXRα or LXRα; overexpressed gene: PPARa): 39.2490 and 43.4175 and 53.1308; relative PPRE-LUC, mean (PPARα, RXRα or LXRα; overexpressed gene: PPARa): 45.27; relative PPRE-LUC, Mean Diff. APC - Ctrl (PPARα, RXRα or LXRα; overexpressed gene: RXRa): 3.509; relative PPRE-LUC (PPARα, RXRα or LXRα; overexpressed gene: RXRa): 53.5690 and 51.6829 and 53.7514; relative PPRE-LUC, mean (PPARα, RXRα or LXRα; overexpressed gene: RXRa): 53; relative PPRE-LUC, Mean Diff. APC - Ctrl (PPARα, RXRα or LXRα; overexpressed gene: pcDNA): -0.0701; relative PPRE-LUC (PPARα, RXRα or LXRα; overexpressed gene: pcDNA): 0.7140 and 0.9259 and 1.1498; relative PPRE-LUC, mean (PPARα, RXRα or LXRα; overexpressed gene: pcDNA): 0.9299; Cell activity % (HEK293T cells): 95.723% and 93.186% and 92.837%

Source: PMC8752738, “A propolis-derived small molecule ameliorates metabolic syndrome in obese mice by targeting the CREB/CRTC2 transcriptional complex” (Nature Communications, 2022)
